In assay [1] the target is T1, endothelin A (ETA) receptor (Rattus norvegicus, UniProt P26684).
T1 construct: smooth muscle A7r5 cells derived from rat aorta; endogenous in cells; host or cells: A7r5 (rat aorta smooth muscle cells)
T1 sequence (P26684 21-426): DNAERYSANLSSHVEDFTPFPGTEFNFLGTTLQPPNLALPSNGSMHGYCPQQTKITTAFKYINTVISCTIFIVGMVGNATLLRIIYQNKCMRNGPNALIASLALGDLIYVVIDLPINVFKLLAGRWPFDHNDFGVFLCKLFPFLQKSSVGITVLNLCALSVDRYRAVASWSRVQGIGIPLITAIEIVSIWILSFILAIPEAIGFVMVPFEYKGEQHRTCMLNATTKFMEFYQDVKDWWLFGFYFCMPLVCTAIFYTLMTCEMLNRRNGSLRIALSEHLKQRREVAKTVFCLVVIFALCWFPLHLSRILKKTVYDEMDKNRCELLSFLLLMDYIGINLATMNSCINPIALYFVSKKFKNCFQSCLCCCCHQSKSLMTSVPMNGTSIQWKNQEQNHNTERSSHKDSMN
Briefly: Measurement of affinity for endothelin A (ETA) receptor: inhibition of 125I-labeled endothelin-1 binding to A7r5 cells. The settings on record: 125I-endothelin-1 8.3 pM, A7r5 cells derived from rat aorta, 37° C., 1 h. The procedure:
Experiment 1 Measurement of affinity for endothelin A (ETA) receptor
Affinities for the ETA receptor were measured from the potency for inhibition of binding of ^125 I-labeled endotheline-1 to smooth muscle A7r5 cells derived from rat aorta. In brief, the cells cultured in 48-well plates were washed with buffer, and incubated in 0.3 ml of Hepes buffered Hanks' solution containing labeled endothelin-1 (8.3 pM) and various kinds of protease inhibitors in the presence or absence of the compound of the present invention at 37° C. for 1 h. The incubation was terminated by rapid removal of the incubation medium and the cells were washed with a HEPES buffered Hanks' solution. The radioactivity of ^125 I-labeled endothelin-1 bound to the cells was determined with a gamma-counter. The specific binding was calculated by subtracting the non-specific binding which was determined in the presence of 10^-7 M non radioactive endothelin-1 from the total binding.

Assay [2] addresses T2, endothelin B (ETB) receptor (Sus scrofa, UniProt P35463).
T2 construct: expressed in transfected cells; host or cells: COS-7
T2 sequence (P35463 27-443): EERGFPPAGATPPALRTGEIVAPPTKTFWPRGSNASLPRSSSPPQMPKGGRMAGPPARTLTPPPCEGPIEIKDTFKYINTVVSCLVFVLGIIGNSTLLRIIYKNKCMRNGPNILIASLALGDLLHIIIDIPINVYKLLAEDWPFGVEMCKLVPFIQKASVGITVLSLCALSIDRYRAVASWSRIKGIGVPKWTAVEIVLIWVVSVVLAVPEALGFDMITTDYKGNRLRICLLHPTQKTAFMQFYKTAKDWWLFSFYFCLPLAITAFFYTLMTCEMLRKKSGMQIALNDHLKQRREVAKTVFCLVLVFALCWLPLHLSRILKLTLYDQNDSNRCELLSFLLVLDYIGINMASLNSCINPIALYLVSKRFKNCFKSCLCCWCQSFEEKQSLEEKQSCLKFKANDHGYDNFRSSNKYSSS
Nature of the assay: Measurement of affinity for endothelin B (ETB) receptor: inhibition of 125I-labeled endothelin-3 binding to COS-7 cells expressing pig ETB receptor. The settings on record: 125I-endothelin-3 25 pM, 37° C., 1 h. On the procedure:
Experiment 2 Measurement of affinity for endothelin B (ETB) receptor
Affinities for the ETB receptor were measured from the potency for inhibiting ^125 I-labeled endothelin-3 binding to COS-7 cells expressing the pig endothelin ETB receptor. In brief, a plasmid vector to which the pig endothelin ETB receptor gene was inserted was transfected to COS-7 cells by the lipofectin method. After the cells were washed with buffer, 10^3 -10^4 cells were dispersed in HEPES buffered Hanks' solution (0.1 ml) containing 25 pM of 125I labeled endothelin-3 and various kinds of protease inhibitors and incubated in the presence or absence of the compound of the present invention at 37° C. for 1 h. After completion of the reaction, the radioactivity bound was trapped by a glass fiber filter and measured with a gamma counter. Specific binding was calculated by subtracting the non-specific binding measured in the presence of 10^-7 M non-radioactive endothelin-3 from the total binding.

By IC50 is commonly meant the midpoint of a concentration-inhibition curve. Read a low IC50 as higher potency. On to `CCCOC1=C(C(=O)O)C(c2ccc3c(c2)OCO3)Oc2ccc(OC(C)C)cc21` (centres unmarked) [Compound I-56], for which the values for the IC50 in assay [1] and in assay [2] were 1.5 nM and 1300 nM, respectively.
As for `COCCCC1=C(C(=O)O)C(c2ccc3c(c2)OCO3)Oc2ccc(OC(C)C)cc21` (centres unmarked) [Compound I-84], the IC50 in assay [1] stood at 1.8 nM; in assay [2], 710 nM.
As to `CCCCCCC1=C(C(=O)O)C(c2ccc3c(c2)OCO3)Oc2ccc(OC(C)C)cc21` (centres unmarked) [Compound I-82], the IC50 in assay [1] amounted to 0.62 nM; in assay [2] it was 69 nM.
The matching figures for `CCCCCC1=C(C(=O)O)C(c2ccc3c(c2)OCO3)Oc2ccc(OC(C)C)cc21` (centres unmarked) [Compound I-77, 2-(Benzo[1,3]dioxol-5-yl)-6-isopropoxy-4-pentyl-2H-chromen-3-carboxylic acid]: 0.32 nM and 150 nM.
As for `CC(C)OC1=C(C(=O)O)C(c2ccc3c(c2)OCO3)Oc2ccc(OC(C)C)cc21` (centres unmarked) [Compound I-59], the IC50 in assay [1] turned out to be 0.81 nM; in assay [2], 730 nM.
With `CC(C)Oc1ccc2c(c1)C(C(C)C)=C(C(=O)O)C(c1ccc3c(c1)OCO3)O2` (centres unmarked) [Compound I-78], the IC50 was determined as 0.63 nM in assay [1] and 2500 nM in assay [2].
Turning to `CC(C)Oc1ccc2c(c1)C(CC1CCCCC1)=C(C(=O)O)C(c1ccc3c(c1)OCO3)O2` (centres unmarked) [Compound I-85], the IC50 in assay [1] is 0.58 nM; in assay [2], 46 nM.
For the compound `CC(C)Oc1ccc2c(c1)C(C1CCCC1)=C(C(=O)O)C(c1ccc3c(c1)OCO3)O2` (centres unmarked) [Compound I-79, 2-(Benzo[1,3]dioxol-5-yl)-4-cyclopentyl-6-isopropoxy-2H-chromen-3-carboxylic acid], the figures for the IC50 in assay [1] and in assay [2] were 0.53 nM and 350 nM, respectively.
For `CCCCSC1=C(C(=O)O)C(c2ccc3c(c2)OCO3)Oc2ccc(OC(C)C)cc21` (centres unmarked) [Compound I-89, 2-(Benzo[1,3]dioxol-5-yl)-4-butylsulfanyl-6-isopropoxy-2H-chromen-3-carboxylic acid], the IC50 in assay [1] stood at 0.27 nM; in assay [2], 100 nM.
The like results for `C=CCCCOC1=C(C(=O)O)C(c2ccc3c(c2)OCO3)Oc2ccc(OC(C)C)cc21` (centres unmarked) [Compound I-65, 2-(Benzo[1,3]dioxol-5-yl)-6-isopropoxy-4-(4-pentenyloxy-1-yl)-2H-chromen-3-carboxylic acid] were, in that order, 0.38 nM and 130 nM.
Take `CCCCCCOC1=C(C(=O)O)C(c2ccc3c(c2)OCO3)Oc2ccc(OC(C)C)cc21` (centres unmarked) [Compound I-67]: the IC50 came out at 0.67 nM in assay [1] and 78 nM in assay [2].
On to `CC(C)Oc1ccc2c(c1)C(OCCCCCO)=C(C(=O)O)C(c1ccc3c(c1)OCO3)O2` (centres unmarked) [Compound I-68], for which the IC50 is 0.95 nM in assay [1] and 880 nM in assay [2].
As to `Cc1ccc(C2=C(C(=O)O)C(c3ccc4c(c3)OCO4)Oc3ccc(OC(C)C)cc32)s1` (centres unmarked) [Compound I-80, 2-(Benzo[1,3]dioxol-5-yl)-6-isopropoxy-4-(5-methyl-thiophen-2-yl)-2H-chromen-3-carboxylic acid], the IC50 in assay [1] is 1 nM; in assay [2], 1800 nM.
The like results for `COC(CCCOC1=C(C(=O)O)C(c2ccc3c(c2)OCO3)Oc2ccc(OC(C)C)cc21)OC` (centres unmarked) [Compound I-70] were, in that order, 1.2 nM and 270 nM.
As to `CC(C)CCC1=C(C(=O)O)C(c2ccc3c(c2)OCO3)Oc2ccc(OC(C)C)cc21` (centres unmarked) [Compound I-83], the results for the IC50 in assay [1] and in assay [2] were 1.9 nM and 480 nM, respectively.
On to `CCCCOC1=C(C(=O)O)C(c2ccc3c(c2)OCO3)Oc2ccc(OC(C)C)cc21` (centres unmarked) [Compound I-57], for which the IC50 is 0.41 nM in assay [1] and 780 nM in assay [2].
The like results for `CCCCCOC1=C(C(=O)O)C(c2ccc3c(c2)OCO3)Oc2ccc(OC(C)C)cc21` (centres unmarked) [Compound I-58] were, in that order, 0.48 nM and 150 nM.
The like results for `COc1ccc(OC2=C(C(=O)O)C(c3ccc4c(c3)OCO4)Oc3ccc(OC(C)C)cc32)cc1` (centres unmarked) [Compound I-74, 2-(Benzo[1,3]dioxol-5-yl)-6-isopropoxy-4-(4-methoxy-phenoxy)-2H-chromen-3-carboxylic acid] were, in that order, 0.21 nM and 58 nM.
As for `CC(C)Oc1ccc2c(c1)C(CCCCO)=C(C(=O)O)C(c1ccc3c(c1)OCO3)O2` (centres unmarked) [Compound I-87], the IC50 in assay [1] is 2.3 nM; in assay [2] it was 1800 nM.
On to `CCCCC1=C(C(=O)O)C(c2ccc3c(c2)OCO3)Oc2ccc(OC(C)C)cc21` (centres unmarked) [Compound I-76], for which the figures for the IC50 in assay [1] and in assay [2] were 0.73 nM and 610 nM, respectively.
As for `COc1ccc(CC2=C(C(=O)O)C(c3ccc4c(c3)OCO4)Oc3ccc(OC(C)C)cc32)cc1` (centres unmarked) [Compound I-81, 2-(Benzo[1,3]dioxol-5-yl)-6-isopropoxy-4-(4-methoxy-benzyl)-2H-chromen-3-carboxylic acid], the IC50 in assay [1] is 0.5 nM; in assay [2] it was 85 nM.
As to `C=CCCC1=C(C(=O)O)C(c2ccc3c(c2)OCO3)Oc2ccc(OC(C)C)cc21` (centres unmarked) [Compound I-86], the results for the IC50 in assay [1] and in assay [2] were 2.7 nM and 950 nM, respectively.

For the origin of these results see patent publication US6218427A, “Chromene-3-carboxylate derivatives” (Shionogi & Co., Ltd., priority 1996, dated 2001).
